Assay results taken from PubChem BioAssay AID1895 (NMMLSC, 2009).
Activity calls are given as the source filed them. How the calls were made is not given here.

Target: MEK5 PB1 domain binding to MEKK2 (MAP3K2) mutant PB1, human
Assay: inhibitors of MEK5 binding to mutant MEKK2, dose response, biochemical, bead multiplex flow cytometry (AID 1895)
Details: Bead-based multiplex flow cytometry; for Ki: measured here: Ki for PB1 binding

Structure (SMILES)	EC50	Ki [µM]
CCCCCc1cc(=O)oc2c(C(CCN3CCCC3)c3ccc(N(C)C)cc3)c(OC)cc(OC)c12 (stereo not given)	26.4 µM	
CCCCCCCCCCCCCCCC[n+]1ccc(/C=N/O)cc1	8.61 µM	
CCOC(=O)C(C(=O)OCC)c1cc(Br)c2noc3c2c1C(=O)c1ccccc1-3	inactive	2.9
CCCCCCCCCCOC(=O)Cn1c(COc2ccccc2C)[n+](C)c2ccccc21	1.02 µM	
CC(=O)c1c(C)[nH]c(C(=O)NC2=NCCS2)c1C	> 30 µM (inactive)	
O=C1Nc2ccc(Br)cc2/C1=N/N=C/C1=C(N2CCOCC2)C(=C\c2ccccc2)/CC1	inactive	2.03
C#CCOCCOCCOCCNc1nc(N2CCN(C(=O)[C@H](CCC(=O)O)n3cc(C(N)CO)nn3)CC2)nc(N2CCN(C(=O)[C@H](Cc3cc4ccccc4[nH]3)n3cc(C(N)[C@H](C)CC)nn3)CC2)n1 (stereo not given in full)	> 30 µM (inactive)	
CS(=O)(=O)N1N=C(c2ccccc2)CC1c1ccc2c(c1)OCO2 (stereo not given)	inactive	0.95
CCC(/C=C1\Sc2ccc(OC)cc2N1CC)=C\c1sc2ccc(OC)cc2[n+]1CCCS(=O)(=O)[O-]	> 30 µM (inactive)	
CCN1/C(=C/C(C)=C/c2sc3ccccc3[n+]2CC)Sc2ccccc21	> 30 µM (inactive)	
NC(=NCCCCCCN=C(N)/N=C(\N)Nc1ccc(Cl)cc1)/N=C(\N)Nc1ccc(Cl)cc1	> 30 µM (inactive)	
S=C(Nc1cccc(Cl)c1)N(CCCN1CCCC1)Cc1cccn1Cc1ccc(Cl)cc1	5.85 µM	
Cc1cc2ccccc2n1CCNC(=O)c1ccc(Br)o1	inactive	2.87
CCCCCCCCCCOC(=O)Cn1c(COc2ccccc2OC)[n+](C)c2ccccc21	> 30 µM (inactive)	
O=C(NNc1c2ccccc2nc2ccccc12)c1cc2ccccc2cc1O	> 30 µM (inactive)	
COc1ccc(Cn2cc3c(-c4ccc(F)cc4)nnc-3c3cc(OC)c(OC)cc32)cc1	> 30 µM (inactive)	
CSc1cccc(NC(=S)N(CCCN2CCCC2)Cc2cccn2Cc2ccc(Cl)cc2)c1	7.1 µM	
COc1cc(CNCCc2c[nH]c3ccccc23)ccc1OCc1ccccc1F	> 30 µM (inactive)	
CN1CCN(CC(O)COc2ccc(C34CC5CC(CC(C5)C3)C4)cc2)CC1 (stereo not given)	> 30 µM (inactive)	
COc1ccc2nc(C)cc(N/N=C/c3ccc(F)cc3)c2c1	> 30 µM (inactive)	
C#CCOCCOCCOCCNc1nc(N2CCN(C(=O)C(Cc3ccc(O)cc3)n3cc(C(N)CC(C)C)nn3)CC2)nc(N2CCN(C(=O)C(Cc3cc4ccccc4[nH]3)n3cc(C(N)C(C)CC)nn3)CC2)n1 (stereo not given)	> 30 µM (inactive)	
C#CCOCCOCCOCCNc1nc(N2CCN(C(=O)C(Cc3cc4ccccc4[nH]3)n3cc(C(N)C(C)CC)nn3)CC2)nc(N2CCN(C(=O)C(Cc3cc4ccccc4[nH]3)n3cc(C(N)C(C)CC)nn3)CC2)n1 (stereo not given)	4.1 µM	

Structure (SMILES)	EC50	Ki [µM]
NC(=O)CSc1nnc(Cc2ccc3c(c2)OCO3)o1	> 30 µM (inactive)	
CCCN1C(=O)/C(=C\C=C2/Sc3ccccc3N2CC)SC1=S	inactive	2.61
CCCCCCCCCCOC(=O)Cn1c(COc2ccc(OC)cc2)[n+](C)c2ccccc21	> 30 µM (inactive)	
C#CCOCCOCCOCCNc1nc(N2CCN(C(=O)[C@H](Cc3cc4ccccc4[nH]3)n3cc([C@@H](N)C(C)CC)nn3)CC2)nc(N2CCN(C(=O)[C@H](Cc3cc4ccccc4[nH]3)n3cc([C@@H](N)Cc4ccc(O)cc4)nn3)CC2)n1 (stereo not given in full)	3.78 µM	
Nc1ccc(N)c(C(=O)O)c1	> 30 µM (inactive)	
OCCCCNCc1ccc(OCc2ccc(Cl)cc2Cl)cc1	> 30 µM (inactive)	
CCCCCc1cc(=O)oc2c(C(CCN3CCCC(C)C3)c3ccc(OC)cc3)c(OC)cc(OC)c12 (stereo not given)	12 µM	
CCN1/C(=C/c2ccc3cc(C)ccc3[n+]2CC)Sc2cc(C)c(C)cc21	> 30 µM (inactive)	
CC[n+]1c(/C=C/C=C/N(C(C)=O)c2ccccc2)sc2ccccc21	> 30 µM (inactive)	
NC(N)=N/N=C/c1ccc(OCc2ccccc2Cl)cc1	> 30 µM (inactive)	
C=CCN1C(=O)/C(=C/c2ccc(-c3ccc(F)cc3)o2)SC1=S	inactive	
CCN1/C(=C/c2ccc3cc(C)ccc3[n+]2C)Sc2ccc3sccc3c21	> 30 µM (inactive)	
CN(c1ccccc1)c1ccc(/C=c2\s/c(=C(/C#N)C(=O)C(C)(C)C)n(Cc3ccco3)c2=O)cc1	inactive	0.16
COC(=O)C1=C(C)N(Cc2ccccc2)C(=NCc2cccc(C(F)(F)F)c2)N[C@H]1c1cccc(F)c1	13.8 µM	
O=[N+]([O-])c1ccc(/C=C/C2=NN(c3ccccc3)C(c3ccco3)C2)o1 (stereo not given)	> 30 µM (inactive)	
CCN1CCN(Cc2ccc(NC(=O)c3cc(NC(=O)c4cnn(-c5ccccc5)c4N)cc(OC)c3)cc2C(F)(F)F)CC1	> 30 µM (inactive)	
N=C(N)SCc1cn(-c2ccccc2)nc1-c1ccc(Br)cc1	8.53 µM	
CCN(CC)CCOC(=O)c1ccc(NC(=O)c2cn(-c3ccccc3)nc2-c2cccs2)cc1	> 30 µM (inactive)	
CC(C)n1cc(CN2CCC(C(=O)Nc3cccc(-c4cccc(Cl)c4)c3)CC2)cn1	> 30 µM (inactive)	
CCCSc1ncnc2sc(C)c(C)c12	> 30 µM (inactive)	
CCc1ccc(Nc2n[n+](-c3ccccc3)c(-c3cc(OC)c(OC)cc3Br)s2)cc1	8.3 µM	
CCCCCc1cc(=O)oc2c(C(CCN3CCCC(C)C3)c3ccc4c(c3)OCO4)c(OC)cc(OC)c12 (stereo not given)	> 30 µM (inactive)	

Structure (SMILES)	EC50	Ki [µM]
Nc1ccc2nc(-c3ccc(-c4nc5ccc(N)cc5[nH]4)cc3)[nH]c2c1	> 30 µM (inactive)	
CCN(CC)CCNC(=O)c1ccc(NC(=O)c2cn(-c3ccccc3)nc2-c2cccs2)cc1	5.01 µM	
COc1cc2nc(N3CCN(c4cc(C)ccc4C)CC3)nc(N)c2cc1OC	5.31 µM	
O=C(CCCC(=O)N(CC(=O)NC1CCCC1)C1CCCC1)Nc1ccccn1	> 30 µM (inactive)	
CCN(Cc1ccccc1)S(=O)(=O)c1ccc(C(=O)N(CCCN(C)C)c2nc3ccc(F)cc3s2)cc1	7.18 µM	
Brc1ccc(N=C/C=C/C=C/Nc2ccc(Br)cc2)cc1	> 30 µM (inactive)	
CCCN(CCC)CCNC(=O)c1cc2c(-c3ccc(Cl)cc3)nn(C)c2s1	11.2 µM	
CCCCCCCCCCOC(=O)Cn1c(COc2ccccc2)[n+](C)c2ccccc21	6 µM	
COC(=O)c1c(C)oc(C)c1S(=O)(=O)N(Cc1ccccc1)C(C)C	> 30 µM (inactive)	
CCN(CC)CCOC(=O)c1ccc(N/C=C(/C#N)c2nc(-c3cccc(OC)c3)cs2)cc1	> 30 µM (inactive)	
Cc1nc(Nc2cnc(/C=C/c3cc(C(=O)Nc4cccc(C(F)(F)F)c4)ccc3C)cn2)cc(N2CCNCC2)n1	> 30 µM (inactive)	
Cc1nn2c(N)csc2nc1=O	inactive	3.34
COc1ccc2nc3cc(Cl)ccc3c(Nc3cc(C(C)C)c(O)cc3C)c2c1	5.37 µM	
C#CCOCCOCCOCCNc1nc(N2CCN(C(=O)C([C@@H](C)CC)n3cc(C(N)COC(=O)C(F)(F)F)nn3)CC2)nc(N2CCN(C(=O)[C@H](CCCCN)n3cc(C(N)[C@H](C)CC)nn3)CC2)n1 (stereo not given in full)	> 30 µM (inactive)	
Cc1ccc(CN2CCSc3ccc(C(=O)NC4CCN(Cc5ccccc5)CC4)cc32)cc1	4.92 µM	
CCCCCCCCCCOC(=O)Cn1c(COc2cccc(OC)c2)[n+](C)c2ccccc21	21.5 µM	
COc1ccccc1N(CN1C(=O)c2ccccc2C1=O)C(=O)c1cccc(C)c1	> 30 µM (inactive)	
O=C(c1cc(COc2c(F)cccc2F)on1)N1C[C@H]2CC[C@H]1C2	> 30 µM (inactive)	
Cc1sc(NC(=O)c2ccccc2)c(C(c2ccccn2)N2CCN(CCO)CC2)c1C (stereo not given)	> 30 µM (inactive)	
Cc1ccc(-n2cc(CNCCCn3ccnc3C)c(-c3ccc(F)cc3)n2)cc1	> 30 µM (inactive)	
CN1C(=CC=C2C=C(I)C(=O)C(I)=C2)C(C)(C)c2ccccc21	5.14 µM	5.04
CCN(CC)CCOC(=O)c1ccc(N/C=C(/C#N)c2nc(-c3ccc4c(c3)OCO4)cs2)cc1	> 30 µM (inactive)	

Structure (SMILES)	EC50	Ki [µM]
COc1ccc(-n2nc3c(N)n[nH]c3cc2=O)cc1	> 30 µM (inactive)	
CCCCCCOc1ccc(/C(C)=N/NC2=NCCN2)cc1[N+](=O)[O-]	14.4 µM	
CN(C)CCCNc1cc(C(C)(C)C)nc2c(-c3ccc(Cl)cc3)cnn12	> 30 µM (inactive)	
Cc1cc2ccccc2n1CCNC(=O)c1cccs1	> 30 µM (inactive)	
CCCCCCCCCCCCCCCC[n+]1cccc2ccccc21	6.89 µM	
Cc1cc(N=Nc2ccc(C)c(N=Nc3cc(C)c(N)cc3N)c2)c(N)cc1N	> 30 µM (inactive)	
O=C(Nc1ccc(C2=NCCN2)cc1)c1ccc(C(=O)Nc2ccc(C3=NCCN3)cc2)c([N+](=O)[O-])c1	> 30 µM (inactive)	
COc1ccc(C(CCNCc2ccc(OC(C)C)cc2)c2ccccc2OC)cc1 (stereo not given)	> 30 µM (inactive)	
CCN1CCN(CCNC(=O)c2ccc(/C=C3/Sc4ccccc4N(Cc4cccc(C)c4)C3=O)cc2)CC1	10.6 µM	
COc1ccc(N2CC(C(=O)Nc3nnc(SCc4ccccn4)s3)CC2=O)cc1 (stereo not given)	> 30 µM (inactive)	
CN(C)CCCn1c(SCC(=O)Nc2nc(-c3cccc(Br)c3)cs2)nc2ccccc2c1=O	> 30 µM (inactive)	
Cc1ccc(-c2csc(NC(=O)C[n+]3cc(-c4ccc(C)cc4)n4c3CCC4)n2)cc1	> 30 µM (inactive)	
CCN1/C(=C/c2ccc3cc(C)cc(C)c3[n+]2CC)Sc2cc(C)ccc21	1.77 µM	1.73
S=c1[nH]nc(-c2ccc(Cl)cc2)n1-c1ccc2c(c1)OCCO2	> 30 µM (inactive)	
CCN1CCN(Cc2ccc(NC(=O)c3cc(NC(=O)C(=O)c4c[nH]c5ccccc45)cc(OC)c3)cc2C(F)(F)F)CC1	0.5 µM	
CNC[C@H](CC1CCCCC1)NC[C@H](Cc1ccccc1)NCCC12CC3CC(CC(C3)C1)C2	> 30 µM (inactive)	
COc1cc(/C=N/NC(=O)c2cc3ccccc3cc2O)ccc1OCCN1CCCCC1	> 30 µM (inactive)	
CCOC(=O)c1c(C)n(-c2ccc(C)cc2)c2ccc(OCC(O)CN3CCN(C)CC3)cc12 (stereo not given)	> 30 µM (inactive)	
Cc1nc(N)sc1-c1csc(Nc2ncccn2)n1	> 30 µM (inactive)	
CN1CCN(c2ccc(NC(=O)c3ccc(-c4ccc(Cl)cc4)o3)cc2)CC1	> 30 µM (inactive)	
